Drawing on PubChem BioAssay AID489022 (Sanford-Burnham Center for Chemical Genomics, 2010), this text covers IC50 for 87 compounds.

The source made the active and inactive calls. The rule behind the calls is not given here.

For orientation: IC50 means the concentration that gives 50% inhibition.

The subject of this test is HEK-293T NF-kB luciferase reporter, luminescence counterscreen. Nature of the test: inhibitors of NF-kB luciferase reporter, HEK-293T, dose response, counter-screen for BCR NF-kB inhibitor project, luminescence, B-cell screen hits (AID 489022). For orientation: In a reporter assay the amount or activity of a reporter protein is the signal.
For the compound `Cc1ccc(C(=O)CSc2nnc(COc3cc(C)cc(C)c3)o2)cc1`, the IC50 is 24.9 µM (inactive). The figure for `O=c1cccc2c1c1cc[nH]c3ccc(=O)n2c31` is 2.93 µM. The result for `N=c1ccn(Cc2c(Cl)cccc2Cl)cc1` reads 14.1 µM.

With `O=C(CCCN1C(=O)/C(=C/c2ccccc2Cl)SC1=S)Nc1cccnc1`, the IC50 is 28.7 µM (inactive).

As for `CCNC(=O)CCc1nc(-c2ccc(C(C)(C)C)cc2)no1`, the IC50 is 34.9 µM (inactive).

In the case of `Cc1c(NC(=O)/C=C/c2cn(-c3ccccc3)nc2-c2ccccc2)c(=O)n(-c2ccccc2)n1C`, the IC50 is > 80 µM (inactive). The figure for `CCOc1ccc(/C=C2\SC(=S)N(CCC(=O)Nc3cccc(C(=O)O)c3)C2=O)cc1` is > 80 µM (inactive); for `CCSc1ncc(Cl)c(C(=O)Nc2sc3c(c2C(=O)NCc2cccnc2)CCCC3)n1` it is > 80 µM (inactive).

`C[C@H]1CCC/C=C/C2C[C@H](O)CC2[C@H](O)/C=C/C(=O)O1` (some centres not stated): the IC50 is 0.29 µM. The result for `Cc1ccc(-c2c[n+]3c(n2-c2ccccc2)SCC3)cc1` reads 7.4 µM; that for `CCOC(=O)c1nn(-c2ccccc2)c(C#N)c1NC(=O)c1nn(CC)cc1Br`, > 80 µM (inactive). Take `CCOc1ccc(/C=C2\SC(=S)N(CCC(=O)Nc3ccc(C(=O)O)cc3)C2=O)cc1`: the IC50 was > 80 µM (inactive). The result for `Cn1c(=O)cc(SCC(=O)N2CCCC2)c2cc(Cl)ccc21` reads > 80 µM (inactive); that for `COc1cc(NC(=O)c2ccco2)c(OC)cc1NC(=O)c1cc(OC)c(OC)c(OC)c1`, 17.7 µM; that for `COC(=O)C(C)Oc1cc(C)cc2oc(=O)c3c(c12)CCC3` (configuration not stated), 28.6 µM (inactive). The result for `CCCCOc1ccc(NC(=O)C(=O)NCCCn2ccnc2)cc1` reads 44.6 µM (inactive). The figure for `CC(C)CCNC(=O)CCCOc1cc(=O)n(C)c2ccccc12` is 60.7 µM (inactive). Take `COc1ccc2nc(Sc3c([N+](=O)[O-])nc(C)n3Cc3ccccc3)[nH]c2c1`: the IC50 is 55.4 µM (inactive).

In the case of `COc1ccc(-c2ccc(C(C)=O)cc2)cc1[C@H]1[C@H]2C=CC[C@@H](C)[C@@H]2C(=O)N1Cc1ccccc1`, the half-maximal inhibitory concentration (IC50) is 14.2 µM. The figure for `Cc1cc(OC(=O)c2ccccc2Cl)cc(=O)n1C` is > 80 µM (inactive); for `CCN(CC)c1ccc(/C=N/N=C(c2ccccc2)c2ccccc2)c(O)c1` it is > 80 µM (inactive); for `CCOc1ccc(-c2nc(CSCC(=O)NCc3ccco3)c(C)o2)cc1` it is 18.9 µM. Regarding `O=C(Nc1nc(-c2ccccc2)cs1)c1ccccc1NS(=O)(=O)c1ccc(F)cc1`, the IC50 was 0.39 µM. The figure for `CC1CN(S(=O)(=O)c2ccc(C(=O)Nc3nc(-c4cc5ccccc5o4)cs3)cc2)CC(C)O1` (configuration not stated) is below 0.16 µM. The result for `OCCN1CCN(C(=S)c2ccc(-c3ccccc3)cc2)CC1` reads 31.6 µM (inactive); that for `Cc1c(CCC(=O)O)c(=O)oc2cc3oc4c(c3cc12)CCCC4`, 5.89 µM; that for `Cc1ccc(NC(=O)C2CCC(CNc3c(N4CCC(C)CC4)c(=O)c3=O)CC2)cc1F` (configuration not stated), > 80 µM (inactive). The figure for `CCN(CC)c1ccc2cc(NC(=O)CCC(=O)O)c(=O)oc2c1` is 1.38 µM; for `N=c1c2c(n(Cc3ccc(Cl)c(Cl)c3)c3c1CCC3)CCCC2` it is 2.35 µM.

As for `O=C(c1cc2nc(-c3ccccc3)cc(-c3ccccc3)n2n1)N1CCN(C(=O)c2ccco2)CC1`, the IC50 is 11 µM. The figure for `CC1=CC(C)(C)Nc2ccc(OC(=O)c3cccnc3)cc21` is 16.1 µM; for `COc1ccc(/C=N\NC(=O)c2sccc2C)cc1Cn1nc(C)cc1C` it is 25.4 µM (inactive).

Regarding `C/C=C(/C)C(=O)OC1Cc2c(ccc3ccc(=O)oc23)OC1(C)C` (configuration not stated), the IC50 is 23.5 µM (inactive). The figure for `COc1ccc(-c2ccc(OC)c([C@H]3[C@H]4C=CC[C@@H](C)[C@@H]4C(=O)N3Cc3ccccc3)c2)cc1C` is > 80 µM (inactive); for `Cc1cc(C)cc(OCc2nnc(SCC(=O)c3ccccc3)o2)c1` it is 23.7 µM (inactive); for `CCCNC(=O)CSCc1nc(-c2ccc(SC)cc2)oc1C` it is 38.5 µM (inactive). The figure for `O=C(NNC(=O)C12CC3CC(CC(C3)C1)C2)c1cccc(O)c1` is > 80 µM (inactive). The figure for `CCN(CC(=O)Nc1c(F)cccc1F)C(=O)c1cc(S(=O)(=O)N(CC)CC)ccc1N1CCCCC1` is 26.8 µM (inactive); for `Cc1csc(NC(=O)CCc2c(C)nc3cc(-c4ccc(Cl)cc4)nn3c2C)n1` it is 10.2 µM. Consider `O=C(NCCC1CCCCN1S(=O)(=O)c1ccc(Cl)cc1)C(=O)NCc1ccncc1` (configuration not stated), for which the IC50 was 20.4 µM (inactive).

With `CCc1ccc(-c2nc(CSCC(=O)NC3CC3)c(C)o2)cc1`, the IC50 is 30.5 µM (inactive). The figure for `N=c1c2c(n(Cc3ccc(Cl)cc3Cl)c3c1CCC3)CCCC2` is 3.43 µM; for `COc1ccc(-n2ncc3c(N4CCC(C(N)=O)CC4)ncnc32)cc1` it is > 80 µM (inactive). With `NC(=O)C1CCN(C(=O)COc2ccc3ccccc3c2Br)CC1`, the IC50 was > 80 µM (inactive). With `Cc1nc2cc(-c3ccccc3)nn2c(C)c1CCC(=O)NCc1ccco1`, the IC50 is > 80 µM (inactive).

On to `Cc1ccc(Nc2nc(N/N=C\c3ccc4c(c3)OCO4)nc(N3CCOCC3)n2)cc1`, for which the IC50 was > 80 µM (inactive). The result for `CCOC(=O)C1CCN(c2ncnc3c2cnn3-c2ccc(OC)cc2)CC1` reads 18.4 µM. As for `CCOC(=O)C1CCN(c2ncnc3c2cnn3-c2ccc(Cl)cc2)CC1`, the half-maximal inhibitory concentration (IC50) is 1.25 µM. Turning to `CC1=CC(C)(C)Nc2ccc(OC(=O)c3ccco3)cc21`, the 50% inhibitory concentration (IC50) is 16.3 µM. The result for `COc1cc2c3c(c1)c(N=NC(N)=S)c(O)n3C(C)(C)C=C2C` reads > 80 µM (inactive); that for `CCN1C(=O)c2cccc3c(NC(=O)c4cccc(N5C(=O)CCC5=O)c4)ccc1c23`, > 80 µM (inactive).

As for `COc1ccc(-c2ccc(N(C)C)cc2)cc1[C@H]1[C@H]2C=CC[C@@H](C)[C@@H]2C(=O)N1Cc1ccccc1`, the IC50 is > 80 µM (inactive). Take `Cc1ccc(/C=C2\SC(=S)N(CCCC(=O)Nc3cc(C)on3)C2=O)cc1`: the IC50 was > 80 µM (inactive).

In the case of `Cc1ccc(S(=O)(=O)CC2CSc3nc4ccccc4n32)cc1` (configuration not stated), the IC50 was 0.41 µM. The figure for `Cc1ccccc1Nc1nc(Cl)c(C=O)s1` is > 80 µM (inactive); for `Cc1cc(C)cc(NC(=O)c2nnn(Cc3cc(C)ccc3C)c2N)c1` it is 4.79 µM. The figure for `CCCCn1c2c(c(=N)c3ccccc31)CCC2` is 40.8 µM (inactive); for `CN1C(=O)CC(c2ccco2)Sc2ccccc21` (configuration not stated) it is > 80 µM (inactive). Turning to `O=S(=O)(NCc1ccncc1)c1ccc(Br)s1`, the half-maximal inhibitory concentration (IC50) was 0.86 µM. In the case of `Oc1[nH]c2ccccc2c1N=Nc1nc(Nc2ccccc2)nc(N2CCOCC2)n1`, the IC50 was 35.5 µM (inactive). With `CCCCCCn1c(-c2ccco2)nc2oc3cc(OC)ccc3c(=O)c2c1=O`, the IC50 is > 80 µM (inactive). With `COc1ccc(-c2ccc(OC)c([C@H]3[C@H]4C=CC[C@@H](C)[C@@H]4C(=O)N3Cc3ccccc3)c2)cc1`, the IC50 was 55.5 µM (inactive). The result for `Cc1cc(C)nc(Sc2ccc([N+](=O)[O-])cc2[N+](=O)[O-])n1` reads > 80 µM (inactive); that for `O=C(CCCN1C(=O)/C(=C/c2ccccc2Cl)SC1=S)NNC(=O)c1ccc(Cl)cc1`, > 80 µM (inactive); that for `COc1cc(/C(C)=N\NC(N)=S)cc(OC)c1OC`, > 80 µM (inactive). The figure for `CNC(=O)c1cccn(Cc2ccc(C(F)(F)F)cc2)c1=O` is 35.5 µM (inactive); for `O=C(Nc1cccc(S(=O)(=O)Nc2ccc(Cl)cc2)c1)c1ccc(Cl)nc1` it is 0.79 µM; for `COc1cccc(/C=C2\SC(=S)N(CCCC(=O)NC3=NCCS3)C2=O)c1` it is 69.1 µM (inactive). The figure for `COC(=O)c1c(NC(=O)c2cccc([N+](=O)[O-])c2)sc(C(N)=O)c1C` is > 80 µM (inactive); for `COc1ccc(S(=O)(=O)Nc2cc3c(C(C)=O)c(C)oc3c3ccccc23)cc1` it is > 80 µM (inactive); for `CC(C)CN(C(=O)COC(=O)C12CC3CC(CC(C3)C1)C2)c1c(N)n(Cc2ccccc2)c(=O)[nH]c1=O` it is 10.6 µM.

As to `COc1ccc(-c2noc(CCCC(=O)O)n2)cc1`, the IC50 was 4.02 µM. For the compound `Cc1nc([N+](=O)[O-])c(Sc2nc3ccc([N+](=O)[O-])cc3[nH]2)n1Cc1ccccc1`, the IC50 was 47.5 µM (inactive). The result for `COCCNC(=O)CSCc1nc(-c2ccc(SC)cc2)oc1C` reads 65.6 µM (inactive); that for `CCC(C)(C)c1ccc(OCCCC[n+]2ccccc2)c(C(C)(C)CC)c1`, 8.65 µM. Turning to `CC(=O)C1=NN(c2ccccc2)C(c2cccs2)N1c1ccc(N(C)C)cc1` (configuration not stated), the IC50 was 5.42 µM.

With `O=C(CCCN1C(=O)/C(=C/c2ccccc2Cl)SC1=S)NNC(=O)c1ccccc1Cl`, the half-maximal inhibitory concentration (IC50) was 20 µM. The figure for `COC(=O)c1cc(NC(=O)Nc2cc(OC)ccc2OC)cc(C(=O)OC)c1` is > 80 µM (inactive); for `CC(=C/c1ccco1)/C=N/NC(=O)CSc1nnc(SCc2ccc(C)cc2)s1` it is > 80 µM (inactive).

As to `CNC(=O)CSc1nc2nn(-c3ccccc3)c(=O)c-2c2n1CCCCC2`, the IC50 was > 80 µM (inactive). The result for `COc1cc(-c2nc(C(=O)NCC3CCCO3)cc3c2[nH]c2ccccc23)cc(OC)c1OC` (configuration not stated) reads 13.7 µM; that for `CCOc1ccc(S(=O)(=O)NCc2ccncc2)cc1NC(=O)c1ccccc1`, 1.37 µM. The figure for `COc1cc(C(=O)Nc2cc(C)c(OCC(=O)N3CCOCC3)c(C)c2)cc(OC)c1OC` is > 80 µM (inactive); for `COc1ccc(/C=C2/SC(=S)N(CCC(=O)O)C2=O)cc1` it is 24.3 µM (inactive); for `COc1ccc(-c2nc(CSCC(=O)NCc3ccco3)c(C)o2)cc1` it is 38.5 µM (inactive). The figure for `CN1CCN(C(=O)c2ccccc2N(Cc2ccccc2)S(=O)(=O)c2ccccc2)CC1` is 45.4 µM (inactive); for `Cc1ccc(C(=O)OCC(=O)N(CC(C)C)c2c(N)n(Cc3ccccc3)c(=O)[nH]c2=O)o1` it is > 80 µM (inactive).
